{"source": "patent US4372949A", "about": "“Treatment of cancer with carcinostatic and immunostimulating agent containing lysophospholipid and phospholipid” (Toyama Chemical Co., Ltd., priority 1979, dated 1983)", "key": {"L-1210 leukemic cells": {"system": "L-1210 leukemic cells", "assay": "Pre-administration effect to L-1210 (L-1210 allograft)", "format": "in vivo, mice (ddN strain)", "conditions": "i.p., 7 days pre-administration", "protocol": "Each test compound was repeatedly administered (at a dose of 40 mg/kg as calculated in terms of L-lysolecithin) intraperitoneally to ddN strain mice (male, 6-week old) for a period of 7 days, and after one-week no-administration period, 1×10^6 L-1210 leukemic cells were inoculated intraperitoneally and the average number of survival days of the test animal was determined."}, "mice": {"system": "mice", "assay": "Acute toxicity", "format": "in vivo", "conditions": "female, intravenous injection", "excerpt": "The results of measurement of acute toxicity on some typical compounds prepared according to this invention are shown in Table 9.\n(Test animal: mice, female; intravenous injection)"}, "[1]": {"system": "Lewis lung cancerous cells", "assay": "Inhibitory effect against metastasis of Lewis lung cancer", "format": "in vivo, mice (BDF1 strain)", "conditions": "L-lysolecithin 40 mg/kg i.p., 10 days", "protocol": "1×10^6 Lewis lung cancerous cells were given intravenously to BDF1 strain (female, 13-week old) mice, and after 24 hours, L-lysolecithin (40 mg/kg) was administered intraperitoneally while a mixture of a fat emulsion (20 ml/kg) and L-lysolecithin (40 mg/kg) was administered intravenously, each for a period of 10 days repeatedly, and at the 11th day, the breast of each test mouse was cut open and the dry weight of the lung (mg mean ± S.E.) was measured. The inhibitory effect was judged by the ratio to the control group (T/C)."}, "[2]": {"conditions": "Table 5, 40 mg/kg L-lysolecithin (No. 7: + 20 ml/kg fat emulsion)"}}}
{"substance": "L-lysolecithin", "values": [{"measurement": "Average number of survival days", "setting": "L-1210 leukemic cells; Table 4, 40 mg/kg as L-lysolecithin", "value": "> 21.0", "unit": "days"}, {"measurement": "Number of survival days (mean ± S.E.)", "setting": "L-1210 leukemic cells; [2]", "value": 21.0, "unit": "days"}, {"measurement": "Number of survivor for 21 days/Number of mice tested", "setting": "L-1210 leukemic cells; [2]", "value": "6/6"}, {"measurement": "LD50", "setting": "mice", "value": 122, "unit": "mg/kg"}, {"measurement": "Dry lung weight (mean ± S.E.)", "setting": "[1]", "value": "34.3 ± 1.6", "unit": "mg"}, {"measurement": "Increased weight (mean ± S.E.)", "setting": "[1]", "value": "4.7 ± 1.6", "unit": "mg"}, {"measurement": "T/C", "setting": "[1]; ratio to control group", "value": 29.0, "unit": "%"}]}
